Activity calls are given as the source filed them. The calls are words filed in the database; no cut-off is given here.
Legend:
[1] = biological target: T1, Mas-related G-protein coupled receptor member X4 (Homo sapiens, UniProt Q96LA9); assay: Antagonist activity at human MRGPRX4 expressed in HEK cells incubated in dark for 1 hr at 37 degree C and then incubated for 30 mins at room temperature in presence of […] bilirubin by HTRF assay; type: functional, cell-based
[2] = biological target: T1, Mas-related G-protein coupled receptor member X4; assay: Antagonist activity at human MRGPRX4 expressed in HEK cells incubated in dark for 1 hr at 37 degree C and then incubated for 30 mins at room temperature in presence of 20 uM of deoxycholic acid by HTRF assay; type: functional, cell-based
[3] = AUC in C57BL/6 mouse at 50 mg/kg, po measured upto 24 hrs by LC-MS/MS analysis; type: ADME, organism-based; set-up: route oral, dose 50 mg/kg, time <=24; settings: in vivo
[4] = Half life in C57BL/6 mouse at 50 mg/kg, po measured upto 24 hrs by LC-MS/MS analysis; type: ADME, organism-based; settings: in vivo
[5] = biological target: T1, Mas-related G-protein coupled receptor member X4; assay: Antagonist activity at human MRGPRX4 expressed in HEK cells incubated in dark for 1 hr at 37 degree C and then incubated for 30 mins at room temperature in presence of 50 uM of obeticholic acid by HTRF assay; type: functional, cell-based
[6] = biological target: T1, Mas-related G-protein coupled receptor member X4; assay: Antagonist activity at human MRGPRX4 expressed in HEK cells incubated in dark for 1 hr at 37 degree C and then incubated for 30 mins at room temperature in presence of 50 uM of urobilin by HTRF assay; type: functional, cell-based
[7] = biological target: T1, Mas-related G-protein coupled receptor member X4; assay: Antagonist activity at human MRGPRX4 expressed in HEK cells incubated in dark for 1 hr at 37 degree C and then incubated for 30 mins at room temperature in presence of 10 uM of bilirubin by HTRF assay; type: functional, cell-based
[8] = biological target: T1, Mas-related G-protein coupled receptor member X4; assay: Antagonist activity at human MRGPRX4 expressed in HEK cells incubated in dark for 1 hr at 37 degree C and then incubated for 30 mins at room temperature in presence of 100 uM of conjugated bilirubin by HTRF assay; type: functional, cell-based
[9] = Cmax in C57BL/6 mouse at 50 mg/kg, po measured upto 24 hrs by LC-MS/MS analysis; type: ADME, organism-based; set-up: route oral, dose 50 mg/kg, time <=24; settings: in vivo
[10] = Stability of compound assessed as parent compound remaining after stored for 24 hrs in dark freezer condition by LC-MS/MS analysis; type: physicochemical; settings: read-out: Stabilty
[11] = Stability of compound assessed as parent compound remaining after stored for 24 hrs in dark at room temperature by LC-MS/MS analysis; type: physicochemical
[12] = Stability of compound assessed as parent compound remaining after stored for 24 hrs in normal lab light condition at room temperature by LC-MS/MS analysis; type: physicochemical
[13] = Stability of compound assessed as parent compound remaining after stored for 24 hrs in blue light condition at room temperature by LC-MS/MS analysis; type: physicochemical
[14] = biological target: T1, Mas-related G-protein coupled receptor member X4; assay: Agonist activity at human MRGPRX4 expressed in HEK cells using preincubated compound in dark freezer condition for 24 hrs by HTRF assay; type: functional, cell-based; settings: filed as agonist
[15] = biological target: T1, Mas-related G-protein coupled receptor member X4; assay: Agonist activity at human MRGPRX4 expressed in HEK cells using preincubated compound in dark at room temperature for 24 hrs by HTRF assay; type: functional, cell-based
[16] = biological target: T1, Mas-related G-protein coupled receptor member X4; assay: Agonist activity at human MRGPRX4 expressed in HEK cells using preincubated compound in light at room temperature for 24 hrs by HTRF assay; type: functional, cell-based
[17] = biological target: T1, Mas-related G-protein coupled receptor member X4; assay: Agonist activity at human MRGPRX4 expressed in HEK cells using preincubated compound in blue light at room temperature for 24 hrs by HTRF assay; type: functional, cell-based

T1 sequence (Q96LA9 whole entry): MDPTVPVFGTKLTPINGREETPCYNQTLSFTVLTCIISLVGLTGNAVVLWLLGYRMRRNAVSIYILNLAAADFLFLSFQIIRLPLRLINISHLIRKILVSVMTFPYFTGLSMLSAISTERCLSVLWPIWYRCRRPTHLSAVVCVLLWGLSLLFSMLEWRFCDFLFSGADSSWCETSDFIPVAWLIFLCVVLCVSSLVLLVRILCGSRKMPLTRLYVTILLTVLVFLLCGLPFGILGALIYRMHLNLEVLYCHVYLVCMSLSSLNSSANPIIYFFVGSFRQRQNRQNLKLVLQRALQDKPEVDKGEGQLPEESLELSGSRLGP

| IC50 [1] | AUC at 24 h [3] | half-life [4] | Compound | also measured |
| --- | --- | --- | --- | --- |
| < 100 nM |  |  | O=C(O)c1cccc(COc2ccc(Cl)cc2C(F)(F)F)n1 | IC50 [5]: 5 nM |
| < 100 nM | 1210 µM·h | 3 h | O=C(O)c1cccc(COc2ccc(Cl)cc2Cl)n1 |  |
| < 100 nM | 1070 µM·h | 4.7 h | O=C(O)c1cc(COc2ccc(C(F)(F)F)cc2Cl)ccc1F |  |
| < 100 nM | 1040 µM·h | 4.8 h | O=C(O)c1cc(F)cc(COc2ccc(C(F)(F)F)cc2Cl)c1 |  |
| < 100 nM | 1500 µM·h | 5.9 h | O=C(O)c1cccc(COc2ccc(Cl)cc2Cl)c1F |  |
| < 100 nM | 4700 µM·h | 5.4 h | CCc1cc(COc2ccc(C(F)(F)F)cc2Cl)nc(C(=O)O)c1 | IC50 [2]: 16 nM |
| < 100 nM |  |  | O=C(O)c1cccc(COc2ccc(C(F)(F)F)cc2)c1F |  |
| < 100 nM |  |  | O=C(O)c1cccc(COc2ccc3ccccc3c2Cl)c1F |  |
| < 100 nM |  |  | O=C(O)c1cc(Cl)cc(COc2ccc(C(F)(F)F)cc2Cl)c1 |  |
| > 2500 nM |  |  | COc1ccc(C(=O)O)cc1COc1ccc(Cl)cc1Cl |  |
| < 100 nM | 974 µM·h | 4.6 h | Cc1cc(COc2ccc(C(F)(F)F)cc2Cl)cc(C(=O)O)c1 |  |
| < 100 nM |  |  | Cc1cc(Cl)ccc1OCc1cccc(-c2nnn[nH]2)c1 |  |
| < 2500 nM |  |  | O=C(c1ccc(COc2ccc(C(F)(F)F)cc2Cl)cc1)N1CC2(COC2)C1 |  |
| < 100 nM |  |  | O=C(O)c1cccc(COc2ccc(C(F)(F)F)cc2F)c1 |  |
| < 100 nM |  |  | O=C(O)c1cccc(COc2ccc(OC(F)(F)F)cc2Cl)c1F |  |
| < 100 nM |  |  | COC(=O)c1cccc(COc2ccc3ccccc3c2)n1 |  |
| < 100 nM |  |  | FC(F)(F)c1ccc(OCc2cccc(-c3nnn[nH]3)c2)cc1Cl |  |
| < 100 nM |  |  | N#Cc1cc(COc2ccc(C(F)(F)F)cc2Cl)cc(C(=O)O)c1 |  |
| > 2500 nM |  |  | O=C(O)c1cccc(COc2ccc(-c3ccccc3)cc2)c1 |  |

The remaining lines, values behind:

| Compound | IC50 [1] | AUC at 24 h [3] | half-life [4] | also measured |
| --- | --- | --- | --- | --- |
| O=C(O)c1cccc(COc2ccc(Cl)c(Cl)c2Cl)c1 | < 100 nM | 219 µM·h | 4 h | IC50 [2]: 24 nM |
| O=C(O)c1cccc(COc2ccc(C(F)(F)F)cc2Cl)n1 | < 100 nM | 880 µM·h | 3.2 h |  |
| Cc1cc(COc2ccc(C(F)(F)F)cc2C)cc(C(=O)O)c1 | < 100 nM | 572 µM·h | 3.6 h |  |
| N#Cc1cc(COc2ccc(Cl)cc2Cl)cc(C(=O)O)c1 | < 100 nM |  |  | IC50 [5]: 6 nM |
| O=C(O)c1cccc(COc2ccc(C(F)(F)F)cc2Cl)c1F | < 100 nM | 2150 µM·h | 11.2 h |  |
| Clc1ccc(OCc2cccc(-c3nnn[nH]3)c2)c(Cl)c1Cl | < 100 nM |  |  | IC50 [6]: 6 nM |
| Cc1cc(C(F)(F)F)ccc1OCc1cccc(C(=O)O)c1F | < 100 nM | 1200 µM·h | 4.8 h | IC50 [7]: 17 nM; IC50 [8]: 12 nM; IC50 [2]: 75 nM; IC50 [5]: 22 nM; Cmax [9]: 230 µM |
| N#Cc1cc(COc2ccc(Cl)c(Cl)c2Cl)cc(C(=O)O)c1 | < 100 nM |  |  |  |
| COC(=O)c1cccc(COc2ccc(Cl)cc2Cl)c1 | > 2500 nM |  |  |  |
| O=C(O)c1cccc(COc2ccc(Cl)c(Cl)c2F)c1 | < 100 nM |  |  |  |
| Cc1cc(COc2ccc(Cl)c(Cl)c2Cl)nc(C(=O)O)c1 | < 100 nM |  |  |  |
| O=C(O)c1cccc(COc2ccc(Cl)cc2Cl)c1 | < 100 nM | 376 µM·h | 4.2 h | IC50 [2]: 130 nM |
| O=C(O)c1cccc(COc2ccc(C(F)(F)F)cc2Cl)c1 | < 100 nM | 615 µM·h | 4.6 h | IC50 [2]: 46 nM |
| O=C(O)c1cccc(COc2ccc(OC(F)(F)F)cc2Cl)c1 | < 100 nM |  |  |  |
| C=CC1=C(C)/C(=C/c2[nH]c(Cc3[nH]c(/C=C4\NC(=O)C(C)=C4C=C)c(C)c3CCC(=O)O)c(CCC(=O)O)c2C)NC1=O [BILIRUBIN] |  |  |  | remaining at 24 h [10]: 44%; Stabilty [11]: Unstable; Stabilty [12]: Unstable; Stabilty [13]: Unstable; Activity [14]: Active; Activity [15]: inactive; Activity [16]: inactive; Activity [17]: inactive |
